Legend:
clinical = details: male, human, plasma, po, 750 mg, metformin 750 mg single dose alone, fed, n=24; for AUC(0-inf): Plasma AUCinf of metformin; for Cmax: Plasma Cmax of metformin
Procedure: (§5) Subjects were admitted to hospital on Day 1 and were discharged on Day 12. […] On Day 3 and Days 5–11, subjects received peficitinib 150 mg (150 mg × 1 tablet), once daily. Subjects returned for an end-of-study examination on Day 15 ± 2.
(§6) The planned sample size was 24 subjects, based on the precedent set by other PK studies of a similar nature [21, 22]. The safety analysis set (SAF) consisted of all subjects who received at least one dose of study drug. The PK analysis set (PKAS) consisted of subjects who received the study drug and provided at least one estimable PK parameter. Plasma PK parameters were calculated by non-compartmental analysis using Phoenix(R) WinNonlin(R) software, version 6.2 (Certara USA, Inc., Princeton, NJ, USA). Baseline demographic and other characteristics, vital signs, clinical laboratory findings, 12-lead ECG results and TEAEs were summarised for the SAF using descriptive statistics.
(§7) Statistical analyses were performed using SAS(R) software, version 9.4 (SAS Institute Inc., Cary, NC, USA). […] The least-square (LS) geometric mean ratio (GMR) and its 90% confidence interval (CI) were calculated using the exponential-transformed LS geometric mean difference and CI. Missing data were not imputed or used for analyses.

[1] = metformin 750 mg single dose alone, fed, n=24
Procedure: as §5, §6, §7

MATE2-K = target: T1, MATE2-K (Homo sapiens, UniProt Q86VL8); assay: Inhibition of [14C]metformin uptake into MATE2-K-expressing HEK293 cells; assay type: cell-based
T1 construct: containing full-length human transporter cDNA; expressed in transfected cells; host or cells: HEK293 (transient transfection)
T1 sequence (Q86VL8 1-566 isoform Q86VL8-3): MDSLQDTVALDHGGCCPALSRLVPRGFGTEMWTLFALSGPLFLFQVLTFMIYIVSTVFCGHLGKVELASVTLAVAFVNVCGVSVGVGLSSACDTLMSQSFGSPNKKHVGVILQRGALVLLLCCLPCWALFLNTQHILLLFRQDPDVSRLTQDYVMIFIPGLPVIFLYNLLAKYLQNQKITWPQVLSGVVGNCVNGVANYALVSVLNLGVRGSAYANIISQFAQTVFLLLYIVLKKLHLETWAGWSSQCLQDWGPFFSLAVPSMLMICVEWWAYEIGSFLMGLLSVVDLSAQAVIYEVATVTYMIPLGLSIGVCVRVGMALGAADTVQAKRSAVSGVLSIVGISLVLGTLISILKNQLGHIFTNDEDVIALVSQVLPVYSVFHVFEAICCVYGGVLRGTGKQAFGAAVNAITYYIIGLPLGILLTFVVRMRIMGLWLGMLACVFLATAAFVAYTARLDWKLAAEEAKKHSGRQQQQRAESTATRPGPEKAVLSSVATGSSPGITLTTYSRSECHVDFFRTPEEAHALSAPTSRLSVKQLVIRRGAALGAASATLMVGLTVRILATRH
Excerpt: (§1) Human embryonic kidney (HEK293) cells expressing OCT1, OCT2, MATE1 and MATE2-K were established at the ADME & Tox. Research Institute (Sekisui Medical Co., Ltd, Ibaraki, Japan) by transfection of a pcDNA vector (Invitrogen, Carlsbad, CA, USA) containing full-length human transporter cDNA. Control HEK293 cells were established by transfection of the empty vector. The expression level of transporter mRNA in transfected cells was verified periodically by real-time polymerase chain reaction. […] The cells were maintained at 37 °C with 5% CO2 in DMEM containing 10% FBS with antibiotic-antimycotics and L-glutamine.
(§2) Assays were performed in triplicate. […]
(§3) After incubation, the test solution was removed, and the cells were washed once with ice-cold 0.2% bovine serum albumin in phosphate-buffered saline (PBS) and twice with 1 mL of ice-cold PBS. […] After the cell lysate was mixed by pipetting, 0.3 mL (OCT1, OCT2, and MATE1) or 0.5 mL (MATE2-K) of the lysate was collected into a glass vial and mixed with 10 mL of the scintillator Hionic-fluor (PerkinElmer, Inc., Waltham, MA, USA) to measure the radioactivity using a liquid scintillation counter (2500TR [PerkinElmer, Inc.]).
(§4) Protein content was measured using the BCA Protein Assay Kit (Thermo Fisher Scientific, Inc., Waltham, MA, USA, or Pierce, Rockford, IL, USA) in accordance with the manufacture’s recommendations. […]

MATE1 = target: T2, MATE1 (Homo sapiens, UniProt Q96FL8); assay: Inhibition of [14C]metformin uptake into MATE1-expressing HEK293 cells; assay type: cell-based
T2 construct: containing full-length human transporter cDNA; host or cells: HEK293
T2 sequence (Q96FL8 1-570): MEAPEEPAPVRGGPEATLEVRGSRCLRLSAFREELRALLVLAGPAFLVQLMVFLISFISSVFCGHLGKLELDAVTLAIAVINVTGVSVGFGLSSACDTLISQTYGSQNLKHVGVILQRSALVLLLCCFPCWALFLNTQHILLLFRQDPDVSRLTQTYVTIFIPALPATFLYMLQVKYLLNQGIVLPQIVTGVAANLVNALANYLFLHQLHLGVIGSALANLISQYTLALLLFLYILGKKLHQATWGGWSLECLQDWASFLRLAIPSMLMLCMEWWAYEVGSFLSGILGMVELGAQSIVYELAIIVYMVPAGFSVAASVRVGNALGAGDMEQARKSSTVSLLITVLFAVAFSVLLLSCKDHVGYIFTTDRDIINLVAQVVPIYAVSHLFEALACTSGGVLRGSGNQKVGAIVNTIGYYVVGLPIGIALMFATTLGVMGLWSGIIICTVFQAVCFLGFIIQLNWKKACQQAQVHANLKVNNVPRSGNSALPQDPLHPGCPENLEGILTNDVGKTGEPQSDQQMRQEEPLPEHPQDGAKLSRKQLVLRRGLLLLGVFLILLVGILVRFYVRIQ
Excerpt: as §1, §2, §3, §4

[2] = parameters: method as in earlier work; details: cited from earlier work
[3] = cited from earlier work
[4] = Earlier clinical pharmacokinetic and mass balance studies of peficitinib; assay type: in vivo, healthy subjects; details: single oral dose of 150 mg, fasted; calculated from 524.5 ng/mL assuming 72.83% protein bound
OCT2 = target: T3, OCT2 (Homo sapiens, UniProt O15244); assay: Inhibition of [14C]metformin uptake into OCT2-expressing HEK293 cells; assay type: cell-based
T3 construct: containing full-length human transporter cDNA; host or cells: HEK293
T3 sequence (O15244 1-555): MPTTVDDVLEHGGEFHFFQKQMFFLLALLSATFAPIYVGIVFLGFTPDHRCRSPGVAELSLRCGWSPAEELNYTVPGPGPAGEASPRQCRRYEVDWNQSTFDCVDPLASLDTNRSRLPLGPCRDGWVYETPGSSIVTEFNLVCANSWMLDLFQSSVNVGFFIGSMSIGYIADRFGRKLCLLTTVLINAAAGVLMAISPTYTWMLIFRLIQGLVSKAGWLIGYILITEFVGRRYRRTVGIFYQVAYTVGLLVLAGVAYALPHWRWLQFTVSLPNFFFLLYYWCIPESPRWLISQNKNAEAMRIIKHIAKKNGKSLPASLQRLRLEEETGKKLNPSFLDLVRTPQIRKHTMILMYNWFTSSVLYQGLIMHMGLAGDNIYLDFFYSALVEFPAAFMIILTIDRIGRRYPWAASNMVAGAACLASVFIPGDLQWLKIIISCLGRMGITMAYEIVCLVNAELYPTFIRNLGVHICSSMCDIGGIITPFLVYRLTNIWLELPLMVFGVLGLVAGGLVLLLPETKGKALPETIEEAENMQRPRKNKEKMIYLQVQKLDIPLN
Excerpt: as §1, §2, §3, §4

[5] = Clinical drug-drug interaction study: safety (treatment-emergent adverse events); assay type: in vivo, healthy male subjects
Procedure: Safety assessments were undertaken from screening through to the final study assessment. Safety was assessed by the monitoring of adverse events, vital signs (supine blood pressure, supine pulse and axillary temperature), clinical laboratory tests (haematology, biochemistry and urinalysis) and 12-lead electrocardiograms (ECGs).
TEAEs were graded using the National Cancer Institute’s Common Terminology Criteria for Adverse Events (NCI CTCAE) guidelines (version 4.0).

OCT1 = target: T4, OCT1 (Homo sapiens, UniProt O15245); assay: Inhibition of [14C]metformin uptake into OCT1-expressing HEK293 cells; assay type: cell-based
T4 construct: containing full-length human transporter cDNA; host or cells: HEK293
T4 sequence (O15245 1-554): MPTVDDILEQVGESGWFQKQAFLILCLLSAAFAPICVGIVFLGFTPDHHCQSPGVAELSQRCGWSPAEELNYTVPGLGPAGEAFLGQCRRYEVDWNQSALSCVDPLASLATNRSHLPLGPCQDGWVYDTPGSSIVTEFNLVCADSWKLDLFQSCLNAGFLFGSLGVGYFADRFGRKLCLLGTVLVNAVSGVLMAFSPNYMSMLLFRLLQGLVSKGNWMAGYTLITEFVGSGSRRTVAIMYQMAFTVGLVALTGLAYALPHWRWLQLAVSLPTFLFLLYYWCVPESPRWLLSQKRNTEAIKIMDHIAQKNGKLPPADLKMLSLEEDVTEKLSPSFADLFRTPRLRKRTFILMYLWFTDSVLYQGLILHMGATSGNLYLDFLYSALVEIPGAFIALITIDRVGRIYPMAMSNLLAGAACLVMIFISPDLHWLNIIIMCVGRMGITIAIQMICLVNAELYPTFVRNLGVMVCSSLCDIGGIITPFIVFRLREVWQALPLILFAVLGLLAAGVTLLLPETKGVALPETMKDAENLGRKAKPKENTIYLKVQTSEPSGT
Excerpt: as §1, §2, §3, §4

[6] = single oral dose of [14C]peficitinib, six healthy male subjects

## CN(C)C(=N)N=C(N)N [Metformin]
clinical; median
  AUC(0-inf): 9050 ng·h/mL
  Cmax: 1380 ng/mL
clinical; min-max
  AUC(0-inf): 6820 to 12500 ng·h/mL
  Cmax: 973 to 2030 ng/mL
clinical; mean (SD)
  Cmax: 1380 ng/mL
[1]
  CL/F of metformin, mean (SD): 83.6 (12.5) L/h
  CL/F of metformin, median: 82.9 L/h
  CL/F of metformin, min-max: 60.2 to 110 L/h
  Plasma AUClast of metformin, mean (SD): 9050 (1410) ng∙h/mL
  Plasma AUClast of metformin, median: 8990 ng·h/mL
  Urine Aelast% of metformin, mean (SD): 38.6 (3.77) %
  Urine Aelast% of metformin, median: 37.7%
  Urine Aelast% of metformin, min-max: 33.0–49.8%
  tmax of metformin, median: 3.00 h

## CN/C(=N/CCSCc1nc[nH]c1C)NC#N [cimetidine, reference compound]
MATE2-K; typical inhibitor, cimetidine 100 μmol/L
  [14C]metformin uptake into MATE2-K-expressing cells, % of uptake in the absence of inhibitors: 8.2–15.1%
MATE1; typical inhibitor, cimetidine 10 μmol/L
  [14C]metformin uptake into MATE1-expressing cells, % of uptake in the absence of inhibitors: 11.9–14.7%

## NC(=O)c1cnc2[nH]ccc2c1N[C@@H]1[C@@H]2CC3C[C@H]1C[C@@](O)(C3)C2 [Peficitinib]
[2]
  Protein bound: 72.83%
[3]; single and multiple doses, healthy subjects, two Phase I trials
  Urinary excretion, share of an oral dose: 9–15%
[3]; single oral dose of 150 mg, fasted conditions
  Cmax of peficitinib: 524.5 ng/mL
[3]; single oral dose of [14C]peficitinib, six healthy male subjects, assuming stability in the gastrointestinal tract
  Share of the peficitinib dose absorbed: approximately 64%
[3]; [6]
  Mean faecal excretion as unchanged peficitinib, share of administered dose: 29.8%
  Mean recovery in faeces: 56.6%
  Mean recovery in urine: 36.8%
MATE2-K
  IC50: 20.8 µM
[4]
  Cmax of unbound peficitinib: 440 nM
OCT2
  IC50: 71.4 µM
[5]; peficitinib 150 mg, metformin 750 mg, no serious TEAEs or TEAEs leading to treatment withdrawal
  Tolerability: generally well tolerated
[5]; peficitinib alone phase, 150 mg once daily, 3/24 subjects, four mild (Grade 1) TEAEs, all considered drug related
  Subjects with TEAEs: 12.5%
[5]; peficitinib alone phase, 1/24
  Increased aspartate aminotransferase, subjects: 4.2%
  Soft faeces, subjects: 4.2%
[5]; peficitinib alone phase, 2/24
  Increased alanine aminotransferase, subjects: 8.3%
MATE1
  IC50: 10 µM
OCT1
  IC50: 0.247 µM

— article PMC7351850 (European Journal of Clinical Pharmacology, 2020)
